Results on 11 compounds are retold here after PubChem BioAssay (NCI).

For orientation: GI50 means the concentration that inhibits growth by half. As a reminder, the TGI is the concentration giving total growth inhibition. High values mean less potent growth arrest, low ones more potent growth arrest.

Holding throughout (assay): DTP human tumour cell line panel, 48 h
Experiment [1] deals with A549 NSCLC.
The subject of experiment [2] is HOP-92 NSCLC.
The test system of experiment [3] is HT29 colon.
The subject of experiment [4] is IGROV1 ovarian.
Experiment [5] has as its system K-562 leukemia.
Experiment [6] relates to NCI-H23 lung.
The test system of experiment [7] is SK-MEL-2 melanoma.
Experiment [8] concerns SK-MEL-5 melanoma.
Experiment [9] concerns SW-620 colon.
The test system of experiment [10] is CAKI-1 renal.

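Assay format: 96-well plates, 48-hour exposure. Here, GI50 denotes the concentration required for 50% inhibition of growth. TGI: total growth inhibition.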

Turning to `CC1=C(CCCOC(=O)[C@H](N)CC(C)C)C2=C(C)C3(CC3)[C@@](C)(O)C(=O)C2=C1`, the GI50 in [1] is 3.06 µM; in experiment [2], 0.759 µM; in [3], 2.22 µM; in experiment [4] it was 0.471 µM; in experiment [5] it was 34.3 µM; in [6] it was 0.367 µM. Further, the GI50 was 1.91 µM in [7], 1.44 µM in [8] and 19.6 µM in experiment [9]. The TGI was 30.9 µM in experiment [1]; 3.33 µM in [2]; 6.02 µM in experiment [3]; 6.19 µM in [4]; > 100 µM in experiment [5]; 3.23 µM in experiment [6]. Also, the TGI was 3.89 µM in experiment [7], 2.83 µM in experiment [8] and > 84 µM in experiment [9].

With `O=C(CCc1n[nH]c(=S)o1)Nc1cc(Cl)ccc1Cl`, the TGI in experiment [1] was > 100 µM; in experiment [10], > 100 µM; in experiment [2], > 100 µM; in experiment [3] it was > 100 µM; in experiment [4], > 100 µM; in experiment [5], 52.1 µM. Besides, the TGI was > 100 µM in experiment [6], > 100 µM in experiment [8] and 32.1 µM in experiment [9].

In the case of `Cn1cc(C2=C(c3ccsc3)C(=O)NC2=O)c2ccccc21`, the GI50 in experiment [1], in experiment [10], in experiment [3], in experiment [4], in [5] and in experiment [6] was > 25 µM each time. The GI50 in [7], in experiment [8] and in [9] was > 25 µM throughout. For the same compound, the TGI in experiment [1], in experiment [10], in experiment [3], in experiment [4], in experiment [5] and in experiment [6] was > 25 µM in each case. The TGI in experiment [7], in experiment [8] and in [9] was > 25 µM in each case.

On to `O=C1NN2CC(c3ccccc3)=NN=C2c2ccccc21`, for which the GI50 in experiment [1] was 28.6 µM; in experiment [10] it was 33.5 µM; in experiment [3], 24.7 µM; in experiment [4], 42.8 µM; in experiment [5], 28.2 µM; in experiment [6], 17.7 µM. Also, the GI50 in [7] is 52.8 µM; in experiment [8], 26.8 µM; in experiment [9], 33 µM. Also, the TGI in experiment [1] is 70.8 µM; in [10] it was > 100 µM; in experiment [3] it was 49 µM; in experiment [4], > 100 µM; in experiment [5], > 100 µM; in experiment [6], 38.7 µM. For the same compound, the values for the TGI in [7], in experiment [8] and in experiment [9] were > 100 µM, 67.2 µM and > 100 µM, respectively.

In the case of `O=C(CCCc1ccc(N(CCCl)CCCl)cc1)NCc1ccccc1`, the GI50 is 6.88 µM in experiment [1]; 2.33 µM in [10]; 8.21 µM in experiment [3]; 13.8 µM in experiment [4]; 7.43 µM in experiment [5]; 4.77 µM in experiment [6]. For the same compound, the GI50 in [7] was 21.8 µM; in experiment [8], 8.14 µM; in [9] it was 6.4 µM. For the same compound, the TGI in experiment [1] was > 100 µM; in experiment [10] it was 14.4 µM; in [3], 52 µM; in [4] it was 43.9 µM; in [5], 54.3 µM; in experiment [6], 33.1 µM. For the same compound, the TGI in experiment [7] worked out at 55 µM; in experiment [8] it was 22.7 µM; in experiment [9], 73.4 µM.

On to `CC(C)(CN1CCCCC1)C(=O)/C=C/c1ccccc1`, for which the TGI is 52.7 µM in experiment [1]; 48 µM in experiment [10]; 36.4 µM in experiment [3]; 86.6 µM in experiment [4]; 24.9 µM in experiment [5]; 33.7 µM in experiment [6]. Moreover, the TGI was found to be 28.9 µM in [7], 25.8 µM in experiment [8] and 27.8 µM in experiment [9].

`C/C(CN1C(=O)c2ccccc2C1=O)=N\NS(=O)(=O)c1ccc2ccccc2c1`: the TGI in experiment [1], in [10], in experiment [3], in experiment [4], in experiment [5] and in experiment [6] was > 100 µM each time. Moreover, the TGI in experiment [7], in experiment [8] and in experiment [9] was > 100 µM each time.

Regarding `O=C1C2C3CC4C5C3C1C5C1(SCCS1)C42` (stereo not given), the TGI in [1], in [10], in experiment [4], in [5], in [7] and in [8] was > 100 µM throughout. For the same compound, in experiment [9], the TGI is > 100 µM.

For the compound `COc1ccc(C2COc3c(ccc(OC)c3OC)C2=O)cc1OC` (stereo not given), the TGI in experiment [1], in experiment [10], in experiment [2], in experiment [3], in experiment [4] and in experiment [5] was > 100 µM throughout. The TGI in experiment [6], in experiment [8] and in experiment [9] was > 100 µM each time.

For `CC(C)(C)CC(C)(C)c1ccc(OCCO)cc1`, the GI50 in experiment [1] is 9.04 µg/mL; in experiment [10] it was 0.678 µg/mL; in experiment [3] it was 10.6 µg/mL; in experiment [5], 0.887 µg/mL; in experiment [6], 1.33 µg/mL; in [7], 8.07 µg/mL. Moreover, the GI50 in experiment [8] is 0.89 µg/mL; in experiment [9] it was 7.73 µg/mL. For the same compound, the TGI in experiment [1] is > 75 µg/mL; in [10], 8.37 µg/mL; in [3], 28.1 µg/mL; in [5] it was > 75 µg/mL; in experiment [6], 20.9 µg/mL; in experiment [7] it was 18.7 µg/mL. The TGI in experiment [8] was 7.63 µg/mL; in experiment [9], 18.6 µg/mL.

Consider `COc1nc(NC2OC(COC(C)=O)C(OC(C)=O)C(OC(C)=O)C2OC(C)=O)c(N=CC=Nc2c(NC3OC(COC(C)=O)C(OC(C)=O)C(OC(C)=O)C3OC(C)=O)nc(OC)[nH]c2=O)c(=O)[nH]1` (stereo not given), for which the TGI in [1], in experiment [10], in [2], in experiment [3], in experiment [4] and in [5] was > 100 µM throughout. Besides, the TGI in [6], in experiment [8] and in experiment [9] was > 100 µM each time.
